# Measured values reported in US6638963B1, “Methods for treating circadian rhythm disorders” (Oregon Health and Science University, priority 1990, dated 2003).
# Legend:
# Assay type in all cases: in vivo, human
# [1] = system: patients with winter depression; experiment: Treatment of patients with winter depression, SIGH-SAD depression ratings, melatonin versus placebo (Example 11); details: for SIGH-SAD change score from pre-treatment: 0.125 mg per capsule at about CT 8 and about CT 12, N=5, p<0.05 vs placebo
# Protocol: Patients with winter depression were treated with either melatonin (N=5) or placebo (N=5). All subjects were screened prior to being admitted into the study and met the following criteria: 1) the DSM-IV criteria (American Psychiatric Association, 1994) for moderate to severe major depressive disorder (without psychotic episodes) or bipolar disorder (depressed or not otherwise specified) with a winter type seasonal pattern; 2) scored […] on the Structured Interview Guide for the Hamilton Depression Rating Scale Seasonal Affective Disorder Version (SIGH-SAD) (Williams et al., 1994, Structured Interview Guide for the Hamilton Depression Scale-Seasonal Effective Disorder Version (SIGH-SAD), New York: New York State Psychiatric Institute) with Hamilton Depression Scale (HAM-D) (Hamilton, 1967, Brit. J. Soc. Clin. Psychol. 6: 278-296)≦10 and an atypical score ≦5 ([…] et al., 1990, Neuropsychopharmacol. […] Prior to inclusion in the study, subjects were interviewed by a physician and also completed 7 a health and sleep screening questionnaire. Written informed consent was obtained for all participants. The study was a three-week, parallel-group design, consisting of a pre-treatment assessment followed by three treatment weeks. Subjects were randomly assigned to either a melatonin or placebo group and were counter balanced based on their initial depression scores (SIGH-SAD) and their reported awakening times. Each group received melatonin or placebo in two daily capsules at about CT 8 and about CT 12, estimated from each subject's initial reported awakening time (about CT 0). The dose of melatonin was 0.125 mg per capsule. For behavioral ratings, subjects were initially interviewed face-to-face using the 29-item Structured Interview Guide for the Hamilton Depression Rating Scale-Seasonal Affective Disorder version (SIGH-SAD). Two subsequent interviews were done weekly by telephone and the third and final interview was conducted in person. All interviews were conducted by a researcher blind to treatment conditions. For the three-week period, subjects completed a Likert daily rating form and a daily sleep diary. To specifically assess fatigue associated with the capsule, subjects also completed a Profile of Mood States (POMS) 30 minutes after ingestion of each capsule. In addition, pre-study and weekly expectations questionnaires were completed. Ten patients (9 females) with winter depression were admitted into the study. The mean age of the melatonin group was 37 (SD=13.6; range: 22-58) and the placebo group was 32.2 (SD=8.6; range: 22-42). The mean pre-treatment SIGH-SAD score for the placebo group was 29.4; the melatonin group mean was 29.2. The initial reported mean wake up time for the placebo group was 7:12 AM; the melatonin group mean was 7:20 AM. […]
# [2] = system: dim light melatonin onset (DLMO); experiment: Melatonin phase response curve trials, two doses of 0.25 mg two hours apart (Example 2); details: four days, nine subjects, 30 trials, time referenced to first capsule
# Protocol: (§1) Prior to collection of human blood, subjects were kept in dim light for about 5 hours (usually between 6 p.m. and 11 p.m.). An intravenous line or heparin lock was inserted in a forearm vein and 5 mL of blood drawn every 30 minutes between 7 p.m. and 11 p.m. The blood samples were centrifuged for 5 minutes at 1000 g and 4° C., and the plasma aspirated into a silanized glass or plastic tube. Samples were assayed immediately or frozen for later analysis. Saliva samples can alternatively be collected and analyzed
# To a 1 mL aliquot of such plasma was added 50 picograms of N-acetyl-5-methoxy(α,α,β,β-D4)tryptamine as a chromatographic control. […]
# (§2) The amount of melatonin present in each sample was determined by gas chromatographic-mass spectrometric analysis. […]
# Mass spectrographic analysis of the column eluant was then performed. Mass spectra were recorded using a Hewlett Packard 5989A mass spectrometer with an ETP Scientific electron multiplier using HP Chemstation software. The relative signals of melatonin and the added N-acetyl-5-methoxy(α,α,β,β-D4)tryptamine control were detected at m/e (mass/charge) ratios of 320 and 323, respectively. […]
# Melatonin was administered to nine subjects as two doses of 0.25 mg, two hours apart, thereby simulating a sustained-release (SR) formulation. […] Phase shifts were calculated by subtracting the post-treatment DLMO from the pre-treatment DLMO. […]
# [3] = system: dim light melatonin onset (DLMO); experiment: Melatonin phase response curve trials, single 0.5 mg immediate-release dose (Example 3)
# Protocol: as §1
# To a 1 mL aliquot of such plasma was added 50 picograms of N-acetyl-5-methoxy(α,α,β,β-D4)tryptamine as a chromatographic control. An equal volume of normal saline was added and the mixture gently shaken with 8 volumes of petroleum ether. The organic phase was removed, and melatonin and the added N-acetyl-5-methoxy(α,α,β,β-D4)tryptamine control extracted from the aqueous phase with 8 volumes of chloroform. The aqueous phase was then discarded, and the chloroform evaporated to dryness.
# The dried extract containing melatonin and the added N-acetyl-5-methoxy(α,α,β,β-D4)tryptamine control was dissolved in 50 μL ethyl acetate. The melatonin contained in the plasma samples and the added N-acetyl-5-methoxy(α,α,β,β-D4)tryptamine control were then derivatized by the addition of 50 μL of pentafluoroproprionic acid anhydride and reacted at 70° C. for 10 minutes. These reaction products were then evaporated to dryness under nitrogen. The dried extract was partitioned between 0.5 mL acetonitrile and 1 mL hexane by vigorous mixing followed by centrifugation and removal of the hexane layer. This partitioning step was repeated twice more, except that the hexane was not removed after the final partitioning. […]
# as §2
# Mass spectrographic analysis of the column eluant was then performed. Mass spectra were recorded using a Hewlett Packard 5989A mass spectrometer with an ETP Scientific electron multiplier using HP Chemstation software. The relative signals of melatonin and the added N-acetyl-5-methoxy(α,α,β,β-D4)tryptamine control were detected at m/e (mass/charge) ratios of 320 and 323, respectively. The amount of melatonin present in any unknown sample can be determined by comparison of the ratio of the intensities of these signals to a standard curve, prepared as described using known amounts of melatonin and added N-acetyl-5-methoxy(α,α,β,β-D4)tryptamine control.
# Melatonin was administered to five subjects as a single 0.5 mg (or immediate-release (IR)) dose. […] Dim light melatonin onset (DLMO) times were determined at the end of each week. Phase shifts were calculated from a comparison of the post-treatment DLMO to the pre-treatment DLMO. […]
# [4] = system: endogenous circadian pacemaker; experiment: Dose effect of melatonin on shift of the endogenous circadian pacemaker; details: melatonin dosages from about 0.125 mg to about 0.5 mg
# From the text: The present invention contemplates the administration of various doses of melatonin which promote quantitative shifts in an individual's endogenous circadian pacemaker. The administration of sufficient doses of melatonin is capable of shifting the endogenous circadian pacemaker, as well as the melatonin PRC, by an appropriate degree. […] The amount of melatonin administered to a human subject should be sufficient to achieve the desired circadian rhythm phase-shifting effect. In a preferred embodiment of this invention, a dosage of about 0.01 mg to about 100 mg, more preferably about 0.1 mg to about 10 mg, most preferably about 0.1 mg to about 1 mg, of exogenous melatonin is used to effect the desired change in phase of the circadian rhythm of endogenous melatonin production. For the purposes of this invention, the term “exogenously administered melatonin” encompasses various formulations of melatonin, melatonin agonists (that is, compounds that mimic melatonin's actions) and compounds that raise endogenous melatoriin levels. Therefore, whenever reference is made to increasing plasma melatonin levels due to administration of exogenous melatonin, this refers also to increasing plasma melatonin levels due to administration of a melatonin stimulant and increasing equivalent agonist levels due to administration of a melatonin agonist. […]
# [5] = both PRC studies (Examples 2 and 3)
structure (smiles),measurement,setting,value
"COc1ccc2[nH]cc(CCNC(C)=O)c2c1 [melatonin, N-acetyl-5-methoxytryptamine]",SIGH-SAD change score from pre-treatment,[1]; Week 1,15.4
same,SIGH-SAD change score from pre-treatment,[1]; Week 2,16.8
same,responders (39% or greater decrease in SIGH-SAD ratings to a score of 21 or less),"[1]; five subjects per group, one responder in placebo group, p=0.048, Fisher's Exact test",all five subjects responded
same,"SIGH-SAD scores after two weeks of capsules, melatonin versus placebo","[1]; one-tailed unpaired t-test, p=0.05",significant difference
same,circadian time of administration at which maximal phase advances occur,[2],~7.5 CT
same,crossover point between advance and delay responses of the melatonin PRC,[3]; [5],~18 CT
same,crossover point between delay and advance responses of the melatonin PRC,[3]; [5],~6 CT
same,circadian time for maximal phase advances,"[3]; single 0.5 mg IR dose, four days, five subjects, twelve trials each",~11 CT
same,circadian time at which phase delays begin,"[3]; single 0.5 mg IR dose, same time as found in Example 2",~6 CT
same,dose effect on shift of endogenous circadian pacemaker,[4],linear dose effect
